# From patent publication US9163063B2, “Peptides and nanoparticles for therapeutic and diagnostic applications” (Trustees of Dartmouth College, priority 2009, dated 2015)
# Peptide text beside a SMILES is read from it. * marks the point of attachment. Benzoyl(4-Br) = O=C(c1ccc(Br)cc1)*; Myristoyl = CCCCCCCCCCCCCC(=O)*
# What was measured:
# IGF-1R [1] = test: Western blot of IGF-1R in AsPC1 cells; assay type: cell-based, human; settings: 48 hours; 50, 100, 200 μM
# Experimental: (§1) AsPC1, MDA231-WT cells were grown in a 100 mm tissue culture dish in RPMI medium containing serum, L-glutamine and antibiotics. At 60% confluency cells were treated with GIPC inhibitor peptides in a dose dependent and time dependent manner. Untreated and GIPC inhibitor peptide-treated AsPC1 and MDA231-WT cells were washed thrice with 10 ml of cold PBS, lysed with ice-cold RIPA buffer along with halt and PIC incubated on ice for 10 min, and centrifuged at 4° C. for 10 min. The expression of IGF-1R and EGFR protein was determined in untreated and peptides treated AsPC1 and MD231A cells by Western blot analysis according to standard protocols. Briefly, protein concentration in the cell lysates was measured using Bradford assay kit (Bio-rad). The proteins were loaded on a 10% SDS-PAGE gel for separation and transferred to a membrane. […]
# (§2) Since GIPC association with IGF-1R is important for IGF-1R stability, the effects of CR1023 and CR1166 on the expression of both IGF-1R and EGFR were investigated. The levels of EGFR and IGF-1R in pancreatic cancer cells (AsPC1) and breast cancer cells (MDA-MB-231A-WT) were analyzed using Western blot analysis after treatment with GIPC inhibitor peptides or control peptides for 48 hours at different concentrations (50 μM, 100 μM and 200 μM) (FIG. 21, A and B). […]
# [2] = molecular target: T1, interaction between IGF-1R and GIPC (Homo sapiens, UniProt O14908); test: Immunoprecipitation for GIPC, immunoblot against IGF-IR in AsPC1 cells; assay type: cell-based; settings: for interaction between IGF-1R and GIPC: IP with GIPC antibody (N-19); for protein levels of IGF-IR: in vitro model
# T1 construct: endogenous in cells; host or cells: AsPC1
# T1 sequence (O14908 1-333): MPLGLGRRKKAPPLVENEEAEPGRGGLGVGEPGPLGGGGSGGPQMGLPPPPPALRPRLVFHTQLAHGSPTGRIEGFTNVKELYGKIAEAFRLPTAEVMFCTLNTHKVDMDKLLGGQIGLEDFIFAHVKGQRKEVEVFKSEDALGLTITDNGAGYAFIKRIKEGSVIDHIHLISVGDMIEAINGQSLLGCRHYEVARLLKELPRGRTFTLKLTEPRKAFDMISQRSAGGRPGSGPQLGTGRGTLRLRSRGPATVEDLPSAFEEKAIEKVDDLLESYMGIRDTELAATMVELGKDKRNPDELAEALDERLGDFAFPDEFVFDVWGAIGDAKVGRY
# Experimental: AsPC1 cells were treated and lysate was collected in RIPA buffer. After immunoprecipitation with a GIPC antibody (N-19), western blot analysis was performed.
# AsPC1 cells [3] = test: MTS cell viability assay (Example 7); assay type: cell-based, human; settings: for reduced cell viability observed: 50-200 μM
# Experimental: (§3) To assess the cytotoxic and cell viability effects of GIPC inhibitor peptides, an MTS assay was conducted in pancreatic cancer cells (AsPC1) and breast cancer cells (MDA-MB-231-WT) using CR1023 and CR1166, as well as control peptides (CR1162, CR1164, CR2055 and CR2059) in a dose dependent manner (50-200 μM).
# EGFR [4] = test: Western blot of EGFR in AsPC1 cells; assay type: cell-based, human; settings: 48 hours; 50, 100, 200 μM
# Experimental: as §1, §2
# EGFR [5] = test: Western blot of EGFR in MDA-MB-231A-WT cells; assay type: cell-based; settings: 48 hours; 50, 100, 200 μM
# Experimental: as §1, §2
# AsPC1 cells [6] = test: Apoptosis assay (annexin/PI); assay type: cell-based, human; settings: for apoptosis induced / reduction in live AsPC1 cells: within 48 h; for induction of apoptosis: 50-200 μM
# Experimental: (§4) MDA231-WT and AsPC1 ells were seeded into 6-well plates at a density of 4×10^5/2 ml of RPMI medium per well and grown overnight. Next day cells were treated with GIPC inhibitor peptides in a time dependent (48 h-96 h) and dose dependent manner (50-200 μM). After treatment with definite time, cells were extensively washed with PBS and tested with the Annexin V-FITC Apoptosis Detection Kit (Biovision, Cat. No. #K101-100) per the manufacturer's instructions.
# MD-MBA-231-WT cells = test: Breast tumor growth model, intratumoral injections; assay type: in vivo, female SCID mice
# Experimental: (§5) In vivo tumor model experiments using female SCID mice were performed to test the effectiveness of GIPC inhibitor peptides. The pancreatic tumor model was established by injecting 5×10^6 AsPC1 cells expressing GFP/luciferase resuspended in 50 μL of sterile PBS into the mouse right flank. Similarly, the breast tumor growth model was established in mice by injecting 2×10^6 MD-MBA-231-WT cells resuspended in 50 μL of sterile PBS into the mammary fat pad of the female SCID mice. When tumors volumes reached 50-100 mm^3, the GIPC inhibitor peptides and controls were intratumorally injected on alternate days over a period of one month. In order to monitor the pancreatic tumor burden, the mice were non-invasively imaged using the IVIS 200 Bioluminescence Imaging system (Xenon Corp.) before sacrificing. After bioluminescence imaging, the effect of the peptides on tumor growth (weight and volume) and EGFR and IGF-1R expression from tumors collected from different groups were examined. Tumors collected after sacrificing the SCID mice were measured by digital slide calipers using the (½ab^2) formula.
# [7] = test system: AsPC1 cells expressing GFP/luciferase; test: Pancreatic tumor model, intratumoral injections; assay type: in vivo, female SCID mice; settings: for pancreatic tumor growth over time compared to control peptides: intratumoral, alternate days, one month
# Experimental: as §5
# MDA-MB-231-WT cells [8] = test: Apoptosis assay (annexin/PI); assay type: cell-based; settings: for apoptosis induced: within 48 h; for induction of apoptosis: 50-200 μM
# Experimental: as §4
# [9] = molecular target: T2, co-localization of GIPC and IGF-1R (Homo sapiens, UniProt O14908); test: Duolink II co-localization of GIPC and IGF-1R in AsPC1 cells; assay type: cell-based
# T2 construct: endogenous in cells; host or cells: AsPC1
# T2 sequence (O14908 1-333): T1 sequence (O14908 1-333)
# Experimental: Co-localization experiments were performed using a Duolink II Fluorescence kit to visualize the co-localization of GIPC and IGF-1R in control untreated AsPC1 cells (FIG. 23). Red fluorescence indicated the co-localization of GIPC and IGF-1R in AsPC1 cells.
# MDA-MB-231-WT cells [10] = test: MTS cell viability assay (Example 7); assay type: cell-based; settings: for reduced cell viability observed: 50-200 μM
# Experimental: as §3
# IGF-1R [11] = test: Western blot of IGF-1R in MDA-MB-231A-WT cells; assay type: cell-based; settings: 48 hours; 50, 100, 200 μM
# Experimental: as §1, §2
Compound,IGF-1R expression compared to control peptides (IGF-1R [1]),interaction between IGF-1R and GIPC [2],protein levels of IGF-IR [2],reduced cell viability observed (AsPC1 cells [3]),EGFR expression compared to control peptides (EGFR [4]),EGFR expression compared to control peptides (EGFR [5]),reduction in live AsPC1 cells (AsPC1 cells [6]; 50 μM),reduction in live AsPC1 cells (AsPC1 cells [6]; 200 μM),induction of apoptosis (AsPC1 cells [6]),pancreatic tumor growth over time compared to control peptides [7],apoptosis induced (MDA-MB-231-WT cells [8]; 50 μM),apoptosis induced (MDA-MB-231-WT cells [8]; 200 μM),induction of apoptosis (MDA-MB-231-WT cells [8]),red fluorescence (co-localization of GIPC and IGF-1R) compared to control [9],reduced cell viability observed (MDA-MB-231-WT cells [10]),IGF-1R expression compared to control peptides (IGF-1R [11]),also measured
"CCCCCCCCCCCCCC(=O)N1CCC[C@H]1C(=O)N[C@@H](CO)C(=O)N[C@@H](CCC(N)=O)C(=O)N[C@@H](CO)C(=O)N[C@@H](CCCCNC(=O)c1ccc(Br)cc1)C(=O)N[C@@H](CO)C(=O)N[C@@H](CCCCNC(=O)c1ccc(Br)cc1)C(=O)N[C@@H](C)C(=O)O [CR1166, My-PSQSK(4-Br-ben)SK(4-Br-ben)A] (Myristoyl-PSQSK(Benzoyl(4-Br))SK(Benzoyl(4-Br))A-OH; C-terminus assumed)",reduced,interfere with the interaction,reduced protein levels of IGF-IR significantly,Reduced cell viability,reduced,reduced,~53%,~35%,significant induction of apoptosis,significantly suppressed the pancreatic tumor growth,~54%,~61%,significant induction of apoptosis,reduced red fluorescence,Reduced cell viability,reduced,"cell viability reduced more compared to CR1023 (AsPC1 cells [3]; 50 μM): ~50%; cell viability reduced more compared to CR1023 (AsPC1 cells [3]; 100 μM): ~45%; cell viability reduced more compared to CR1023 (AsPC1 cells [3]; 200 μM): ~35%; apoptosis induced (AsPC1 cells [6]; 50 μM): ~47%; apoptosis induced (AsPC1 cells [6]; 200 μM): ~65%; breast tumor regression as compared to mice treated with CR1023 (MD-MBA-231-WT cells; CR1023 data not shown): ~1.4 times; IGF-1R expression in tumor compared to CR2059 (MD-MBA-231-WT cells; breast tumors): significant reduction; breast tumor growth over time compared to controls (MD-MBA-231-WT cells; intratumoral, alternate days): significantly suppressed breast tumor growth; breast tumor regression as compared to control DMSO-PBS-treated mice (MD-MBA-231-WT cells; mouse, in vivo): ~2.7 times; breast tumor regression as compared to mice treated with CR2055 (MD-MBA-231-WT cells; mouse, in vivo): ~2.1 times; breast tumor regression as compared to mice treated with CR2059 (MD-MBA-231-WT cells; mouse, in vivo): ~2.2 times; EGFR expression in tumor compared to control CR2055 ([7]; pancreatic tumors): significant reduction; IGF-1R expression in tumor compared to control CR2055 ([7]; pancreatic tumors): significant reduction; tumor regression as compared to control DMSO-PBS-treated mice ([7]; pancreatic tumors): ~4.8 times; tumor regression as compared to mice treated with CR1023 ([7]; pancreatic tumors): ~2.3 times; tumor regression as compared to mice treated with CR2055 ([7]; pancreatic tumors): ~3.8 times; tumor regression as compared to mice treated with CR2059 ([7]; pancreatic tumors): ~3.9 times; cell viability reduced more compared to CR1023 (MDA-MB-231-WT cells [10]; at 50 μM, 100 μM, and 200 μM): 30-33%"
"CCCCCCCCCCCCCC(=O)N1CCC[C@H]1C(=O)N[C@@H](CO)C(=O)N[C@@H](CCC(N)=O)C(=O)N[C@@H](CO)C(=O)N[C@@H](CO)C(=O)N[C@@H](CO)C(=O)N[C@@H](CCC(=O)O)C(=O)N[C@@H](C)C(=O)O [CR1023, My-PSQSSSEA] (Myristoyl-PSQSSSEA-OH; C-terminus assumed)",reduced,interfere with the interaction,reduced protein levels of IGF-IR significantly,Reduced cell viability,reduced,reduced,~78%,~62%,significant induction of apoptosis,significantly suppressed the pancreatic tumor growth,~30%,~35%,significant induction of apoptosis,reduced red fluorescence,Reduced cell viability,reduced,
